In patent US8124793B2, “Derivatives of ethylene methanedisulfonate as cancer chemotherapeutic agents” (priority 2007, dated 2012):

How the values were obtained:
CCRF-CEM = experiment: NCI screen, growth of human tumor cells: Leukemia CCRF-CEM; format: cell-based; details: CCRF-CEM (Leukemia), 10^−4 molar
Summary of the method: (§1)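 NCI screening: compound applied to tumor cell lines at a given molar concentration, growth measured as percent. Minimum 60 data points/compound; cancer type noted.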

CAKI-1 = experiment: NCI screen, growth of human tumor cells: Renal Cancer CAKI-1; format: cell-based; details: CAKI-1 (Renal Cancer), 10^−4 molar
Summary of the method: as §1

K562 = experiment: NCI screen, growth of human tumor cells: Leukemia K562; format: cell-based; details: K562 (Leukemia), 10^−4 molar
Summary of the method: as §1

NCI-H460 = experiment: NCI screen, growth of human tumor cells: Non-Small Cell Lung NCI-H460; format: cell-based; details: NCI-H460 (Non-Small Cell Lung), 10^−4 molar
Summary of the method: as §1

MOLT-4 = experiment: NCI screen, growth of human tumor cells: Leukemia MOLT-4; format: cell-based; details: MOLT-4 (Leukemia), 10^−4 molar
Summary of the method: as §1

UACC-62 = experiment: NCI screen, growth of human tumor cells: Melanoma UACC-62; format: cell-based; details: UACC-62 (Melanoma), 10^−4 molar
Summary of the method: as §1

HOP-92 = experiment: NCI screen, growth of human tumor cells: Non-Small Cell Lung HOP-92; format: cell-based; details: HOP-92 (Non-Small Cell Lung), 10^−4 molar
Summary of the method: as §1

ACHN = experiment: NCI screen, growth of human tumor cells: Renal Cancer ACHN; format: cell-based; details: ACHN (Renal Cancer), 10^−4 molar
Summary of the method: as §1

786-0 = experiment: NCI screen, growth of human tumor cells: Renal Cancer 786-0; format: cell-based; details: 786-0 (Renal Cancer), 10^−4 molar
Summary of the method: as §1

SNB-75 = experiment: NCI screen, growth of human tumor cells: CNS Cancer SNB-75; format: cell-based; details: SNB-75 (CNS Cancer), 10^−4 molar
Summary of the method: as §1

SNB-19 = experiment: NCI screen, growth of human tumor cells: CNS Cancer SNB-19; format: cell-based; details: SNB-19 (CNS Cancer), 10^−4 molar
Summary of the method: as §1

[1] = tested on: lymphocytic leukemia, lymphoid leukemia, melanocarcinoma, human breast xenograft and ovarian carcinoma; details: disclosure of U.S. Pat. No. 4,950,768; cited from earlier work

O=S1(=O)CS(=O)(=O)OCCO1 [NSC 348948, ethylene methanedisulfonate]
percent of growth of human tumor cells (CCRF-CEM): −3% | percent of growth of human tumor cells (CAKI-1): −6% | percent of growth of human tumor cells (K562): 5% | percent of growth of human tumor cells (NCI-H460): 6% | melting point: 176 to 180 °C | percent of growth of human tumor cells (MOLT-4): 5% | percent of growth of human tumor cells (UACC-62): −13% | percent of growth of human tumor cells (HOP-92): 6% | percent of growth of human tumor cells (ACHN): 22% | percent of growth of human tumor cells (786-0): 24% | percent of growth of human tumor cells (SNB-75): 18% | percent of growth of human tumor cells (SNB-19): 18% | effectiveness in the treatment of mice cancers [1]: effective
